Measurements: ChEMBL document CHEMBL1155531, “Structure guided design of 5-arylindazole glucocorticoid receptor agonists and antagonists” (J Med Chem, 2010)

Experiments:
Progesterone receptor = molecular target: T1, Progesterone receptor (Homo sapiens, UniProt P06401); assay: Binding affinity to PR
T1 sequence (P06401 whole entry): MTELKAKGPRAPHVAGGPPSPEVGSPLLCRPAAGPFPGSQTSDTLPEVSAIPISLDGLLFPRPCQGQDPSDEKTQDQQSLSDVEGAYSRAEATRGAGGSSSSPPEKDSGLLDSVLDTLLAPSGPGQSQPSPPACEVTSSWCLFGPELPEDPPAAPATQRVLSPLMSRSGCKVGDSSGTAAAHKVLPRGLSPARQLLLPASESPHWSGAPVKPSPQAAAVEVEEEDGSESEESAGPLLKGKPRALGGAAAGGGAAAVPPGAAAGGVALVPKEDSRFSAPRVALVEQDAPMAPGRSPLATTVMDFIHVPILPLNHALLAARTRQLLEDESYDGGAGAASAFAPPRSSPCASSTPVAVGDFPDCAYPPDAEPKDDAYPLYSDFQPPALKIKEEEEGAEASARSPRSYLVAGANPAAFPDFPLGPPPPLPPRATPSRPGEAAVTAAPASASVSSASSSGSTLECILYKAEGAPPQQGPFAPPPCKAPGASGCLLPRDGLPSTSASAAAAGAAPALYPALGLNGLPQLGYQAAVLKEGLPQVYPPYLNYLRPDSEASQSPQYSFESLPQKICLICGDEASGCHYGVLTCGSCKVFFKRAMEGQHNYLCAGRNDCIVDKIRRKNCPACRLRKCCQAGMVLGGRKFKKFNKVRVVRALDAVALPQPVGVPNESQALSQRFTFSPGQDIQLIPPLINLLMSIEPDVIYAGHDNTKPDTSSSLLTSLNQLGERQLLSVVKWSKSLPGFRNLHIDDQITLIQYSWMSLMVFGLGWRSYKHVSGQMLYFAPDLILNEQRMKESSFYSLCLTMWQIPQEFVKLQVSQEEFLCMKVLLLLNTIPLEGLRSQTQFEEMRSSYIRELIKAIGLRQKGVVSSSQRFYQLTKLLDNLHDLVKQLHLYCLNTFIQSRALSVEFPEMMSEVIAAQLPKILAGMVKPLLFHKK

Glucocorticoid receptor [1] = molecular target: T2, Glucocorticoid receptor (Homo sapiens, UniProt P04150); assay: Activity at GR in human A549 cells by NF-kappaB transrepression assay; assay type: cell-based
T2 sequence (P04150 whole entry): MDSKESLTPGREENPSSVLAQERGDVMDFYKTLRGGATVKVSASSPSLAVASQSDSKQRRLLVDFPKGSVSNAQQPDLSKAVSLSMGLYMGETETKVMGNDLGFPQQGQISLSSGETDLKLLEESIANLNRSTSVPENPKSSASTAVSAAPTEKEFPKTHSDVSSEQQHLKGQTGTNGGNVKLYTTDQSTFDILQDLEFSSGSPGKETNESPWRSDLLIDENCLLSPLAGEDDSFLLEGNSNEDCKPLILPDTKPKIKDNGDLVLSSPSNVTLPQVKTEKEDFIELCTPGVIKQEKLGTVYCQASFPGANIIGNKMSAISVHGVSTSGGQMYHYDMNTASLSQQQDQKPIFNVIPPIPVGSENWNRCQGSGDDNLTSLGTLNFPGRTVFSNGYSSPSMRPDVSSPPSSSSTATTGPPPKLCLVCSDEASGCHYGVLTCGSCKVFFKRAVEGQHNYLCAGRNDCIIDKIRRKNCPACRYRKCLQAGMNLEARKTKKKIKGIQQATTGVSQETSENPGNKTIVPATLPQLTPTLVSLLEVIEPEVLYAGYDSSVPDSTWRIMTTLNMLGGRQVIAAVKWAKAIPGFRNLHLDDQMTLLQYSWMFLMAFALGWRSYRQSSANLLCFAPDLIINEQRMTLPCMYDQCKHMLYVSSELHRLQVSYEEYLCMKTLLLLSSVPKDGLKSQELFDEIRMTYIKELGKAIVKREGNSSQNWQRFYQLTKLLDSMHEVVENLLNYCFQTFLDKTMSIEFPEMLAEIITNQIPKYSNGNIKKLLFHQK

Androgen receptor = molecular target: T3, Androgen receptor (Homo sapiens, UniProt P10275)
T3 sequence (P10275 whole entry): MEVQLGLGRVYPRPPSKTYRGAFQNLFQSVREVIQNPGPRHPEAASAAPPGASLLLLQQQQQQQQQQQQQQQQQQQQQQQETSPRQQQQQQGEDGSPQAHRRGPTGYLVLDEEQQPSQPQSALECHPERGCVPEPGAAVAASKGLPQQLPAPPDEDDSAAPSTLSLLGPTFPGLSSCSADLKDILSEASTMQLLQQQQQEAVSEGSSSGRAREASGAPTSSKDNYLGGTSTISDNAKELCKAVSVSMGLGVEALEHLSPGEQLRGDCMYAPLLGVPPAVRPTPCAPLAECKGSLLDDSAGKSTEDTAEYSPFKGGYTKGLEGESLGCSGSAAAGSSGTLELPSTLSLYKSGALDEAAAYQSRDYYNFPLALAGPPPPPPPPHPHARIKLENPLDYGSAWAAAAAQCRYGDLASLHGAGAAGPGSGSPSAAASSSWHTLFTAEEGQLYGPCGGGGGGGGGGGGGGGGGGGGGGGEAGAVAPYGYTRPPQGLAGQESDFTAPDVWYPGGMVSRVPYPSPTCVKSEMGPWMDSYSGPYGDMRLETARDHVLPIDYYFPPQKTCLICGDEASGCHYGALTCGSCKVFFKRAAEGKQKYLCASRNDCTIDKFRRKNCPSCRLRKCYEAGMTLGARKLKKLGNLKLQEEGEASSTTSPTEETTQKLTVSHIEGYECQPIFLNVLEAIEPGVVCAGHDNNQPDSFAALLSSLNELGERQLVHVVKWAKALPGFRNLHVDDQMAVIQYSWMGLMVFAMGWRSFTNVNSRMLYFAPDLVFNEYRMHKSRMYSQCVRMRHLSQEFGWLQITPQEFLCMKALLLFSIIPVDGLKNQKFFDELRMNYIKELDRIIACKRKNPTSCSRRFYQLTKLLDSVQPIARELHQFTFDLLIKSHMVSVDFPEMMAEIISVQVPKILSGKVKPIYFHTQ

Glucocorticoid receptor [2] = molecular target: T2, Glucocorticoid receptor; assay: Displacement of fluorescent-labeled Dexamethasone from GR by fluorescent polarization assay
Glucocorticoid receptor [3] = molecular target: T2, Glucocorticoid receptor; assay: Agonist activity at GR in human A549 cells transfected with luciferase gene linked to MMTV promoter assessed as luciferase transactivation activity after 24 hrs; assay type: functional, cell-based
Glucocorticoid receptor [4] = molecular target: T2, Glucocorticoid receptor; assay: Antagonist activity at GR in human A549 cells transfected with luciferase gene linked to MMTV promoter assessed as inhibition of dexamethasone-induced luciferase transactivation activity after 24 hrs; assay type: functional, cell-based

Compound	IC50 (Progesterone receptor) [µM]	IC50 (Glucocorticoid receptor [1]) [µM]	IC50 (Androgen receptor) [µM]	IC50 (Glucocorticoid receptor [2]) [µM]	EC50 (Glucocorticoid receptor [3]) [µM]	IC50 (Glucocorticoid receptor [4]) [µM]
CCCN(c1ccccc1)S(=O)(=O)c1ccc(-c2ccc3c(cnn3-c3ccc(F)cc3)c2)c(C(F)(F)F)c1	> 10	0.316	> 10	0.0158	0.316	
Fc1ccc(-n2ncc3cc(-c4ccc(C(F)(F)F)cc4)ccc32)cc1	> 10	> 10	> 10	> 10		
O=S(=O)(Nc1ccc(-c2ccc3c(cnn3-c3ccc(F)cc3)c2)c(C(F)(F)F)c1)c1cccc(OC(F)(F)F)c1	> 10	0.0794	> 10	0.0398	0.251	
CCS(=O)(=O)Nc1ccc(-c2ccc3c(cnn3-c3ccc(F)cc3)c2)c(C(F)(F)F)c1	> 10	> 10	5.01	0.01		2
CC(C)CNS(=O)(=O)c1ccc(-c2ccc3c(cnn3-c3ccc(F)cc3)c2)c(C(F)(F)F)c1	0.631	> 10	6.31	0.0398		3.16
O=S(=O)(Nc1ccc(-c2ccc3c(cnn3-c3ccc(F)cc3)c2)c(C(F)(F)F)c1)c1ccsc1	> 10	0.1	2.51	0.0126	0.251	
CC(C)(C)c1ccc(S(=O)(=O)Nc2ccc(-c3ccc4c(cnn4-c4ccc(F)cc4)c3)c(C(F)(F)F)c2)cc1	> 2.51	> 10	> 10	0.0501		10
O=S(=O)(Nc1ccccc1)c1ccc(-c2ccc3c(cnn3-c3ccc(F)cc3)c2)c(C(F)(F)F)c1	> 10	> 10	> 10	0.0251		3.16
CC(C)S(=O)(=O)Nc1ccc(-c2ccc3c(cnn3-c3ccc(F)cc3)c2)c(C(F)(F)F)c1	> 10	0.0501	> 10	0.0126	0.158	
CC(C)NS(=O)(=O)c1ccc(-c2ccc3c(cnn3-c3ccc(F)cc3)c2)c(C(F)(F)F)c1	3.16	> 10	> 10	0.0126		1.26
CS(=O)(=O)Nc1ccc(-c2ccc3c(cnn3-c3ccc(F)cc3)c2)c(C(F)(F)F)c1	> 10	> 10	5.01	0.01		1.58
CCCS(=O)(=O)Nc1ccc(-c2ccc3c(cnn3-c3ccc(F)cc3)c2)c(C(F)(F)F)c1	> 10	> 10	3.16	0.0158		2
O=S(=O)(Nc1ccc(-c2ccc3c(cnn3-c3ccc(F)cc3)c2)c(C(F)(F)F)c1)c1ccccc1	> 10	> 10	6.31	0.0158		1.58
CC(C)c1cc(C(C)C)c(S(=O)(=O)Nc2ccc(-c3ccc4c(cnn4-c4ccc(F)cc4)c3)c(C(F)(F)F)c2)c(C(C)C)c1	> 10	> 10	> 10	0.251		> 10
O=S(=O)(NCCO)c1ccc(-c2ccc3c(cnn3-c3ccc(F)cc3)c2)c(C(F)(F)F)c1	5.01	> 10	10	0.0158		2
CCCNS(=O)(=O)c1ccc(-c2ccc3c(cnn3-c3ccc(F)cc3)c2)c(C(F)(F)F)c1	0.794	> 10	6.31	0.0316		3.16

Now from value to molecule:

IC50 (Progesterone receptor) [µM]	IC50 (Glucocorticoid receptor [1]) [µM]	IC50 (Androgen receptor) [µM]	IC50 (Glucocorticoid receptor [2]) [µM]	EC50 (Glucocorticoid receptor [3]) [µM]	IC50 (Glucocorticoid receptor [4]) [µM]	Compound
> 10	> 10	> 10	0.501			CCOc1ccccc1-c1ccc2c(cnn2-c2ccc(F)cc2)c1
2.51	> 10	> 10	0.794			Oc1cccc(-c2ccc3c(cnn3-c3ccc(F)cc3)c2)c1
> 10	> 10	> 10	> 2.51			N#Cc1cccc(-c2ccc3c(cnn3-c3ccc(F)cc3)c2)c1
1.58	> 10	> 10	3.16			Fc1ccc(-n2ncc3cc(-c4cccc(C(F)(F)F)c4)ccc32)cc1
> 10	> 10	> 10	0.398			N#Cc1ccccc1-c1ccc2c(cnn2-c2ccc(F)cc2)c1
> 10	> 10	> 10	> 10			Cc1ccc(-c2ccc3c(cnn3-c3ccc(F)cc3)c2)cc1
> 10	> 10	> 10	0.631			Oc1ccc(-c2ccc3c(cnn3-c3ccc(F)cc3)c2)cc1
2.51	> 10	> 10	0.251			Fc1ccc(-n2ncc3cc(-c4ccccc4C(F)(F)F)ccc32)cc1
> 10	> 10	> 10	3.16			Fc1ccc(-n2ncc3cc(-c4ccccc4)ccc32)cc1
> 10	> 10	> 10	3.16			Cc1cccc(-c2ccc3c(cnn3-c3ccc(F)cc3)c2)c1
> 10	> 10	> 10	2.51			CCOc1cccc(-c2ccc3c(cnn3-c3ccc(F)cc3)c2)c1
2	> 10	> 10	> 10			N#Cc1ccc(-c2ccc3c(cnn3-c3ccc(F)cc3)c2)cc1
1.58	> 10	3.16	0.02		2	CCNS(=O)(=O)c1ccc(-c2ccc3c(cnn3-c3ccc(F)cc3)c2)c(C(F)(F)F)c1
6.31	> 10	> 10	1.26			Cc1ccccc1-c1ccc2c(cnn2-c2ccc(F)cc2)c1
